Source: US20230085307A1, “PYRIDAZINONE COMPOUND AND HERBICIDE” (NISSAN CHEMICAL CORPORATION, priority 2019, published 2023)

Assays:
chickweed [1] = experiment: Test Example 4: herbicidal effect by soil treatment (Table 19, symbol P); format: in vivo, common chickweed (Stellaria media); conditions: AAH 320 g/ha
How it was run: (§1)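 Step 1: sow seeds in sterilized diluvial soil, cover ~1.5 cm. Step 2: spray diluted emulsion onto soil surface at predetermined rate. Step 3: greenhouse, 25–30° C, three weeks. Step 4: grade effect on each plant by earlier criteria.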

southern crabgrass [2] = experiment: Test Example 4: herbicidal effect by soil treatment (Table 19, symbol F); format: in vivo, southern crabgrass (Digitaria ciliaris); conditions: AAH 320 g/ha
How it was run: as §1

late watergrass = experiment: Test Example 1: herbicidal activity, application before weed generation under submerged conditions (Table 16, symbol A); format: in vivo, late watergrass (Echinochloa oryzicola); conditions: 320 g/ha applied herbicide
How it was run: (§2)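 Emulsion formulation, water-diluted to set dose, was put onto the flooded surface (4 cm depth, alluvial soil) the same day weeds were sown and 2.5-leaf rice transplanted. After 3 weeks at 25-30 °C under glass, each species was rated 0 (≤5% kill) to 5 (≥90% kill).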

lambsquarters [3] = experiment: Test Example 4: herbicidal effect by soil treatment (Table 19, symbol O); format: in vivo, lambsquarters (Chenopodium album); conditions: AAH 320 g/ha
How it was run: as §1

green foxtail [4] = experiment: Test Example 4: herbicidal effect by soil treatment (Table 19, symbol G); format: in vivo, green foxtail (Setaria viridis); conditions: AAH 320 g/ha
How it was run: as §1

barnyard grass [5] = experiment: Test Example 3: herbicidal effect by foliage application, Wagner pot (Table 18, symbol H); format: in vivo, barnyard grass (Echinochloa crus-galli); conditions: 320 g/ha
How it was run: (§3)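 Plants were sown in alluvial soil held under 0.1–0.5 cm standing water and grown 14 days in a greenhouse at 25–30 °C. An emulsifiable formulation, water-diluted to the set dose, was then sprayed onto the foliage, and effects were scored three weeks later using previously defined criteria.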

chickweed [6] = experiment: Test Example 5: herbicidal effect by foliage application, plastic box (Table 20, symbol P); format: in vivo, common chickweed (Stellaria media); conditions: foliage application, AAH 320 g/ha, three weeks after application
How it was run: (§4)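 Foliar spray test: emulsion formulation diluted in water to a set application rate, sprayed onto 14-day-old plants raised in diluvial soil at 25° C to 30° C under glass. Both herbicidal effect and crop effect rated visually three weeks later.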

wild oat [7] = experiment: Test Example 4: herbicidal effect by soil treatment (Table 19, symbol I); format: in vivo, wild oat (Avena fatua); conditions: AAH 320 g/ha
How it was run: as §1

redroot pigweed [8] = experiment: Test Example 5: herbicidal effect by foliage application, plastic box (Table 20, symbol N); format: in vivo, redroot pigweed (Amaranthus retroflexus); conditions: foliage application, AAH 320 g/ha, three weeks after application
How it was run: as §4

velvetleaf [9] = experiment: Test Example 4: herbicidal effect by soil treatment (Table 19, symbol M); format: in vivo, velvetleaf (Abutilon theophrasti); conditions: AAH 320 g/ha
How it was run: as §1

blackgrass [10] = experiment: Test Example 5: herbicidal effect by foliage application, plastic box (Table 20, symbol J); format: in vivo, blackgrass (Alopecurus myosuroides); conditions: foliage application, AAH 320 g/ha, three weeks after application
How it was run: as §4

Italian ryegrass [11] = experiment: Test Example 5: herbicidal effect by foliage application, plastic box (Table 20, symbol K); format: in vivo, Italian ryegrass (Lolium multiflorum); conditions: foliage application, AAH 320 g/ha, three weeks after application
How it was run: as §4

lambsquarters [12] = experiment: Test Example 5: herbicidal effect by foliage application, plastic box (Table 20, symbol O); format: in vivo, lambsquarters (Chenopodium album); conditions: foliage application, AAH 320 g/ha, three weeks after application
How it was run: as §4

persian speedwell [13] = experiment: Test Example 5: herbicidal effect by foliage application, plastic box (Table 20, symbol R); format: in vivo, Persian speedwell (Veronica persica); conditions: foliage application, AAH 320 g/ha, three weeks after application
How it was run: as §4

persian speedwell [14] = experiment: Test Example 4: herbicidal effect by soil treatment (Table 19, symbol R); format: in vivo, Persian speedwell (Veronica persica); conditions: AAH 320 g/ha
How it was run: as §1

wild oat [15] = experiment: Test Example 5: herbicidal effect by foliage application, plastic box (Table 20, symbol I); format: in vivo, wild oat (Avena fatua); conditions: foliage application, AAH 320 g/ha, three weeks after application
How it was run: as §4

redroot pigweed [16] = experiment: Test Example 4: herbicidal effect by soil treatment (Table 19, symbol N); format: in vivo, redroot pigweed (Amaranthus retroflexus); conditions: AAH 320 g/ha
How it was run: as §1

barnyard grass [17] = experiment: Test Example 5: herbicidal effect by foliage application, plastic box (Table 20, symbol H); format: in vivo, barnyard grass (Echinochloa crus-galli); conditions: foliage application, AAH 320 g/ha, three weeks after application
How it was run: as §4

Japanese bulrush = experiment: Test Example 1: herbicidal activity, application before weed generation under submerged conditions (Table 16, symbol B); format: in vivo, Japanese bulrush (Schoenoplectus juncoides); conditions: 320 g/ha applied herbicide
How it was run: as §2

windgrass [18] = experiment: Test Example 4: herbicidal effect by soil treatment (Table 19, symbol L); format: in vivo, windgrass (Apera spica-venti); conditions: AAH 320 g/ha
How it was run: as §1

southern crabgrass [19] = experiment: Test Example 5: herbicidal effect by foliage application, plastic box (Table 20, symbol F); format: in vivo, southern crabgrass (Digitaria ciliaris); conditions: foliage application, AAH 320 g/ha, three weeks after application
How it was run: as §4

Chinese sprangletop = experiment: Test Example 3: herbicidal effect by foliage application, Wagner pot (Table 18, symbol D); format: in vivo, chinese sprangletop (Leptochloa chinensis); conditions: 320 g/ha
How it was run: as §3

velvetleaf [20] = experiment: Test Example 5: herbicidal effect by foliage application, plastic box (Table 20, symbol M); format: in vivo, velvetleaf (Abutilon theophrasti); conditions: foliage application, AAH 320 g/ha, three weeks after application
How it was run: as §4

oval-leafed pondweed = experiment: Test Example 1: herbicidal activity, application before weed generation under submerged conditions (Table 16, symbol C); format: in vivo, oval-leafed pondweed (Monochoria vaginalis); conditions: 320 g/ha applied herbicide
How it was run: as §2

blackgrass [21] = experiment: Test Example 4: herbicidal effect by soil treatment (Table 19, symbol J); format: in vivo, blackgrass (Alopecurus myosuroides); conditions: AAH 320 g/ha
How it was run: as §1

windgrass [22] = experiment: Test Example 5: herbicidal effect by foliage application, plastic box (Table 20, symbol L); format: in vivo, windgrass (Apera spica-venti); conditions: foliage application, AAH 320 g/ha, three weeks after application
How it was run: as §4

Italian ryegrass [23] = experiment: Test Example 4: herbicidal effect by soil treatment (Table 19, symbol K); format: in vivo, Italian ryegrass (Lolium multiflorum); conditions: AAH 320 g/ha
How it was run: as §1

barnyard grass [24] = experiment: Test Example 4: herbicidal effect by soil treatment (Table 19, symbol H); format: in vivo, barnyard grass (Echinochloa crus-galli); conditions: AAH 320 g/ha
How it was run: as §1

green foxtail [25] = experiment: Test Example 5: herbicidal effect by foliage application, plastic box (Table 20, symbol G); format: in vivo, green foxtail (Setaria viridis); conditions: foliage application, AAH 320 g/ha, three weeks after application
How it was run: as §4

CC(=O)COc1ccc(-c2sc3ccccc3c2-c2c(O)c(C)nn(C)c2=O)cc1 [1-143]
P: chickweed, herbicidal effect rating (chickweed [1]): 0 (Herbicidal rate of 5% or less (almost no effect))
F: southern crabgrass, herbicidal effect rating (southern crabgrass [2]): 3 (Herbicidal rate of 40% or more and less than 70%)
Herbicidal effect on A: late watergrass (grade 0-5) (late watergrass): 3 (Herbicidal rate of 40% or more and less than 70%)
O: lambsquarters, herbicidal effect rating (lambsquarters [3]): 5 (Herbicidal rate of 90% or more (almost completely withered))
G: green foxtail, herbicidal effect rating (green foxtail [4]): 4 (Herbicidal rate of 70% or more and less than 90%)
herbicidal effect on H (barnyard grass), rating 0-5 (barnyard grass [5]): 5 (Herbicidal rate of 90% or more (almost completely withered))
P: chickweed, herbicidal effect (chickweed [6]): 5 (Herbicidal rate of 90% or more (almost completely withered))
I: wild oat, herbicidal effect rating (wild oat [7]): 0 (Herbicidal rate of 5% or less (almost no effect))
N: redroot pigweed, herbicidal effect (redroot pigweed [8]): 4 (Herbicidal rate of 70% or more and less than 90%)
M: velvetleaf, herbicidal effect rating (velvetleaf [9]): 4 (Herbicidal rate of 70% or more and less than 90%)
J: blackgrass, herbicidal effect (blackgrass [10]): 0 (Herbicidal rate of 5% or less (almost no effect))
K: Italian ryegrass, herbicidal effect (Italian ryegrass [11]): 4 (Herbicidal rate of 70% or more and less than 90%)
O: lambsquarters, herbicidal effect (lambsquarters [12]): 4 (Herbicidal rate of 70% or more and less than 90%)
R: persian speedwell, herbicidal effect (persian speedwell [13]): 5 (Herbicidal rate of 90% or more (almost completely withered))
R: persian speedwell, herbicidal effect rating (persian speedwell [14]): 3 (Herbicidal rate of 40% or more and less than 70%)
I: wild oat, herbicidal effect (wild oat [15]): 0 (Herbicidal rate of 5% or less (almost no effect))
N: redroot pigweed, herbicidal effect rating (redroot pigweed [16]): 4 (Herbicidal rate of 70% or more and less than 90%)
H: barnyard grass, herbicidal effect (barnyard grass [17]): 4 (Herbicidal rate of 70% or more and less than 90%)
Herbicidal effect on B: Japanese bulrush (grade 0-5) (Japanese bulrush): 0 (Herbicidal rate of 5% or less (almost no effect))
L: windgrass, herbicidal effect rating (windgrass [18]): 0 (Herbicidal rate of 5% or less (almost no effect))
F: southern crabgrass, herbicidal effect (southern crabgrass [19]): 3 (Herbicidal rate of 40% or more and less than 70%)
herbicidal effect on D (Chinese sprangletop), rating 0-5 (Chinese sprangletop): 0 (Herbicidal rate of 5% or less (almost no effect))
M: velvetleaf, herbicidal effect (velvetleaf [20]): 5 (Herbicidal rate of 90% or more (almost completely withered))
Herbicidal effect on C: oval-leafed pondweed (grade 0-5) (oval-leafed pondweed): 0 (Herbicidal rate of 5% or less (almost no effect))
J: blackgrass, herbicidal effect rating (blackgrass [21]): 0 (Herbicidal rate of 5% or less (almost no effect))
L: windgrass, herbicidal effect (windgrass [22]): 4 (Herbicidal rate of 70% or more and less than 90%)
K: Italian ryegrass, herbicidal effect rating (Italian ryegrass [23]): 0 (Herbicidal rate of 5% or less (almost no effect))
H: barnyard grass, herbicidal effect rating (barnyard grass [24]): 4 (Herbicidal rate of 70% or more and less than 90%)
G: green foxtail, herbicidal effect (green foxtail [25]): 5 (Herbicidal rate of 90% or more (almost completely withered))
